Among the test systems are NCI/ADR-RES ovarian; T-47D breast; MDA-MB-231 breast; DMS 114 small cell lung; RXF-631 renal; DU-145 prostate; KM20L2 colon; MCF7 breast; LXFL 529 NSCLC; HOP-18 NSCLC; M19-MEL melanoma; DMS 273 small cell lung.
Common to all, as to assay: DTP human tumour cell line panel, 48 h

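Values below derive from 48-hour exposures of cells grown in 96-well plates, with endpoints linearly interpolated between the two concentrations bracketing the appropriate inhibition level. At the TGI there is no net growth.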 Some results are limits rather than exact numbers.

As to `CCOC(=O)c1oc2ccc([N+](=O)[O-])c3c2c1CCC3`, the concentration for total growth inhibition (TGI) (as a rule, the concentration at which net growth stops) with NCI/ADR-RES ovarian is more than 100 µM; with T-47D breast it was more than 31.6 µM; with MDA-MB-231 breast it was more than 100 µM; in the assay on DMS 114 small cell lung, more than 100 µM; in the assay with RXF-631 renal, more than 100 µM; with DU-145 prostate, more than 100 µM. Further, the concentration for total growth inhibition (TGI) with KM20L2 colon, in the assay on MCF7 breast, in the assay with LXFL 529 NSCLC, with HOP-18 NSCLC, in the assay on M19-MEL melanoma and in the assay on DMS 273 small cell lung was more than 100 µM each time.
With `O=c1c(NO)c([N+](=O)[O-])cnn1-c1ccccc1`, the TGI is 3.79 µM in the assay with T-47D breast; 35.3 µM in the assay with DMS 114 small cell lung; 6.18 µM in the assay on RXF-631 renal; 27.6 µM in the assay with DU-145 prostate; 18.3 µM with KM20L2 colon; 16.5 µM in the assay on MCF7 breast. In addition, the total growth inhibition concentration (TGI) came out at 3.17 µM in the assay with LXFL 529 NSCLC, 37.5 µM in the assay with HOP-18 NSCLC, 12.2 µM in the assay on M19-MEL melanoma and 13.4 µM with DMS 273 small cell lung.
Take `C/C(=N\N=C(\[Se])N(C)C)c1ccccn1`: the concentration for total growth inhibition (TGI) with NCI/ADR-RES ovarian is 1.67 µM; with T-47D breast it was 32.3 µM; with MDA-MB-231 breast, 30.7 µM; with DMS 114 small cell lung it was less than 0.01 µM; in the assay on RXF-631 renal, 74.1 µM; in the assay on DU-145 prostate it was 18 µM. For the same molecule, the TGI is 12.6 µM in the assay on KM20L2 colon; 8.15 µM in the assay on MCF7 breast; 13.8 µM with LXFL 529 NSCLC; 12.1 µM in the assay on HOP-18 NSCLC; 5.02 µM with M19-MEL melanoma; 5.29 µM in the assay with DMS 273 small cell lung.
Turning to `COc1cccc2c1C(=O)c1c(O)c3c(c(O)c1C2=O)C[C@@](O)(C(=O)CO)CC3OC1CC(O)C(O)C(C)O1` (stereo partly specified), the concentration for total growth inhibition (TGI) is 12.5 µM in the assay with NCI/ADR-RES ovarian; 5.44 µM in the assay on T-47D breast; 6 µM in the assay on MDA-MB-231 breast; 0.958 µM in the assay with DMS 114 small cell lung; 21.2 µM with RXF-631 renal; 0.176 µM in the assay with DU-145 prostate. For the same molecule, the TGI in the assay on KM20L2 colon is 6.28 µM; with MCF7 breast, 21.6 µM; in the assay on LXFL 529 NSCLC, 9.26 µM; with HOP-18 NSCLC it was 6.06 µM; in the assay with M19-MEL melanoma it was 1.96 µM; with DMS 273 small cell lung it was 0.4 µM.

The values above are taken from PubChem BioAssay (NCI).
